For this data set the following is noted: in water.

One may read the solubility (mole fraction) as the moles of solute divided by all moles in the saturated solution. Turning to `O=S(=O)([O-])c1ccc2cc(S(=O)(=O)[O-])ccc2c1.[Na+].[Na+]`, the solubility (mole fraction) is, setting by setting: (283.15 K) 0.00323; (288.15 K) 0.00343; (293.15 K) 0.00366; (298.15 K) 0.00402; (303.15 K) 0.00437; (308.15 K) 0.00478. Also, the solubility (mole fraction) came out at 0.00523 (313.15 K); 0.00563 (318.15 K); 0.00611 (323.15 K); 0.00657 (328.15 K); 0.0072 (333.15 K).

Turning to `O=S(=O)([O-])c1ccc2ccc(S(=O)(=O)[O-])cc2c1.[Na+].[Na+]`, the solubility (mole fraction) reads like this: (283.15 K) 0.0128; (288.15 K) 0.014; (293.15 K) 0.0159; (298.15 K) 0.0189; (303.15 K) 0.0224; (308.15 K) 0.0268. Further, the solubility (mole fraction) reads like this: (313.15 K) 0.0323; (318.15 K) 0.0383; (323.15 K) 0.0473; (328.15 K) 0.0584; (333.15 K) 0.075.
